These results are taken from PubChem BioAssay (NCI).

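Five compound concentrations were applied to cells in 96-well plates for 48 hours; endpoints were derived by simple linear interpolation of the resulting dose-response curve. At the GI50, growth is halved. At the TGI there is no net growth.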 Where a SMILES comes first, the peptide text is derived from it. [ ]: non-standard residue; d: D form. The star is where a group is joined. ξ: configuration not given here. X6 = FC(F)(F)c1cc(NC(=S)*)cc(C(F)(F)F)c1; ξF = NC(Cc1ccccc1)C(=O)O

Test systems include 786-0 renal; A549 NSCLC; HT29 colon; MDA-MB-435; NCI-H226 lung; OVCAR-5 ovarian; OVCAR-8 ovarian; SF-268 CNS; SNB-75 CNS; U251 CNS.
Experiment in all cases: DTP human tumour cell line panel, 48 h

Consider `COC(=O)[C@@H](NC(=O)CNC(=O)[C@H]1CCCN1C(=O)C(Cc1ccccc1)NC(=S)Nc1cc(C(F)(F)F)cc(C(F)(F)F)c1)C(C)C` (some centres not stated) (X6-[ξF][dP]GV-OMe), for which the GI50 in the assay with 786-0 renal was 2.12 µM; in the assay on A549 NSCLC, 3.03 µM; in the assay with HT29 colon, 2.44 µM; in the assay on MDA-MB-435, 2.79 µM; in the assay with NCI-H226 lung, 1.65 µM; in the assay on OVCAR-5 ovarian, 1.93 µM. In addition, the GI50 with OVCAR-8 ovarian is 3.75 µM; in the assay with SF-268 CNS, 2.98 µM; in the assay on SNB-75 CNS, 1.52 µM. In addition, the TGI came out at 4.34 µM with 786-0 renal; 14.4 µM in the assay on A549 NSCLC; 5.75 µM in the assay with HT29 colon; 8.12 µM in the assay with MDA-MB-435; 3.42 µM with NCI-H226 lung; 3.64 µM with OVCAR-5 ovarian. Also, the total growth inhibition concentration (TGI) was found to be 53.6 µM in the assay with OVCAR-8 ovarian, 10.7 µM in the assay with SF-268 CNS and 3.49 µM in the assay on SNB-75 CNS.
As for `N#CCCN(CCC#N)c1ccc(/C=C2\N=C(c3cc([N+](=O)[O-])ccc3Cl)OC2=O)cc1`, the TGI in the assay with 786-0 renal was over 100 µM; in the assay on A549 NSCLC it was over 100 µM; in the assay on HT29 colon, over 100 µM; in the assay with NCI-H226 lung it was 44 µM; in the assay on OVCAR-5 ovarian, over 100 µM; in the assay with OVCAR-8 ovarian, 37.7 µM. The TGI was over 100 µM in the assay with SF-268 CNS, over 100 µM in the assay on SNB-75 CNS and 32.1 µM in the assay on U251 CNS.
As for `CC1=C(C(=O)Nc2ccc(Cl)c(Cl)c2)C(c2cccc(Oc3ccccc3)c2)NC(=S)N1` (configuration not stated), the GI50 was 8.29 µM in the assay with 786-0 renal; 9.51 µM in the assay on A549 NSCLC; 7.55 µM in the assay on MDA-MB-435; 9.68 µM in the assay with NCI-H226 lung; 9.38 µM with OVCAR-5 ovarian; 7.8 µM in the assay with OVCAR-8 ovarian. In addition, the GI50 with SF-268 CNS is 6.1 µM; in the assay with SNB-75 CNS it was 8.26 µM; in the assay with U251 CNS it was 7.84 µM. For the same molecule, the TGI in the assay with 786-0 renal was determined as 17.4 µM; with A549 NSCLC it was 23.7 µM; in the assay with MDA-MB-435, 14.2 µM; in the assay with NCI-H226 lung it was 19.5 µM; in the assay with OVCAR-5 ovarian, 18.7 µM; with OVCAR-8 ovarian, 16.8 µM. In addition, the TGI with SF-268 CNS worked out at 12.9 µM; in the assay with SNB-75 CNS, 18.4 µM; in the assay on U251 CNS it was 14.8 µM.
In the case of `CC(C)=CC(=O)C1c2cccc(O)c2C(=O)c2c(O)cc(C)cc21` (configuration not stated), the concentration for total growth inhibition (TGI) is 16.1 µM in the assay with 786-0 renal; 4.31 µM with A549 NSCLC; 20.5 µM in the assay with HT29 colon; 4.65 µM in the assay on NCI-H226 lung; 5.13 µM with OVCAR-5 ovarian; 7.58 µM in the assay with OVCAR-8 ovarian. The TGI with SF-268 CNS worked out at 5.3 µM; with SNB-75 CNS, 4.68 µM; in the assay with U251 CNS, 3.82 µM.
In the case of `COc1cc(Cc2cnc(/N=C3\C(=O)N(CN4CCN(c5c(F)cc6c(=O)c(C(=O)O)cn(C7CC7)c6c5OC)CC4C)c4ccc(F)cc43)nc2N)cc(OC)c1OC` (configuration not stated), the GI50 in the assay on 786-0 renal was 11.1 µM; in the assay on A549 NSCLC, 27 µM; in the assay on HT29 colon, 14.9 µM; with MDA-MB-435, 14.2 µM; in the assay with NCI-H226 lung, 13.8 µM; in the assay with OVCAR-5 ovarian, 10.6 µM. For the same molecule, the results for the GI50 in the assay with OVCAR-8 ovarian, in the assay with SF-268 CNS and with U251 CNS were 32.1 µM, 18.2 µM and 8.79 µM, respectively. Besides, the TGI in the assay with 786-0 renal is 23.1 µM; with A549 NSCLC it was over 100 µM; with HT29 colon, over 100 µM; in the assay on MDA-MB-435 it was 32.9 µM; in the assay on NCI-H226 lung it was 43.3 µM; in the assay on OVCAR-5 ovarian it was 22.5 µM. Besides, the TGI in the assay on OVCAR-8 ovarian was over 100 µM; in the assay with SF-268 CNS, 57.7 µM; in the assay on U251 CNS, 21 µM.
`CCCCCN(CCCCC)CC(O)c1cc(C)c2ccc3cc(C(C)C)ccc3c2c1` (configuration not stated): the GI50 with 786-0 renal was 1.79 µM; in the assay with A549 NSCLC, 2.61 µM; in the assay on MDA-MB-435 it was 1.72 µM; with NCI-H226 lung, 1.85 µM; with OVCAR-5 ovarian it was 1.8 µM; in the assay on OVCAR-8 ovarian, 2.55 µM. The values for the GI50 in the assay on SF-268 CNS, in the assay on SNB-75 CNS and in the assay on U251 CNS were 2.14 µM, 1.31 µM and 1.9 µM, respectively. The TGI came to 3.41 µM with 786-0 renal; 5.58 µM in the assay on A549 NSCLC; 3.21 µM in the assay on MDA-MB-435; 3.97 µM with NCI-H226 lung; 3.66 µM in the assay with OVCAR-5 ovarian; 6.46 µM in the assay on OVCAR-8 ovarian. For the same molecule, the TGI in the assay on SF-268 CNS amounted to 4.26 µM; in the assay on SNB-75 CNS, 2.65 µM; in the assay on U251 CNS, 3.82 µM.
In the case of `Cc1ccc(N=Nc2ccc(N(CCC#N)CCC#N)cc2C)c(Br)c1`, the TGI with 786-0 renal is 61.5 µM; in the assay on A549 NSCLC it was over 100 µM; in the assay on HT29 colon it was 27.4 µM; with NCI-H226 lung, 61.5 µM; in the assay on OVCAR-5 ovarian it was over 100 µM; in the assay with OVCAR-8 ovarian, over 100 µM. In addition, the TGI in the assay on SF-268 CNS, in the assay on SNB-75 CNS and in the assay with U251 CNS was over 100 µM throughout.
Take `CC(C)C/C(CC(=O)CCC(=O)Nc1ccccc1[N+](=O)[O-])=N\NC(=O)c1cc2ccccc2cc1O`: the TGI in the assay on 786-0 renal is over 100 µM; in the assay with A549 NSCLC it was over 100 µM; in the assay with HT29 colon, over 100 µM; in the assay on NCI-H226 lung it was over 100 µM; with OVCAR-5 ovarian it was over 100 µM; in the assay on OVCAR-8 ovarian it was 95.8 µM. Besides, the TGI in the assay on SF-268 CNS, in the assay with SNB-75 CNS and in the assay on U251 CNS was over 100 µM throughout.
As to `CCCCCCCCCCCCCCCCCC(CCCCCCCCCCCCCCCCC)OP(=O)(O)O`, the TGI in the assay with 786-0 renal, in the assay with A549 NSCLC, in the assay on HT29 colon, with NCI-H226 lung, in the assay with OVCAR-5 ovarian and with OVCAR-8 ovarian was over 100 µM each time. Moreover, the TGI in the assay with SF-268 CNS, with SNB-75 CNS and in the assay with U251 CNS was over 100 µM in each case.
As for `Cc1nc2ccccc2c(=O)n1-c1ccccc1I`, the TGI in the assay on 786-0 renal, in the assay on A549 NSCLC, in the assay on HT29 colon, with NCI-H226 lung, in the assay with OVCAR-5 ovarian and in the assay with OVCAR-8 ovarian was over 100 µM in each case. The TGI with SF-268 CNS, with SNB-75 CNS and with U251 CNS was over 100 µM throughout.
For `Cc1ccc(NC2=C(Cl)C(=O)N(Cc3ccccc3)C2=O)cc1O`, the GI50 in the assay with 786-0 renal is 22.6 µM; in the assay on A549 NSCLC, 42.1 µM; in the assay on MDA-MB-435, 29 µM; in the assay on NCI-H226 lung, 18.1 µM; in the assay with OVCAR-5 ovarian, over 100 µM; with OVCAR-8 ovarian, 26.1 µM. Also, the results for the GI50 with SF-268 CNS and in the assay on U251 CNS were 31.7 µM and 18.7 µM, respectively. The TGI is over 100 µM in the assay with 786-0 renal; over 100 µM with A549 NSCLC; over 100 µM with MDA-MB-435; 60.6 µM in the assay with NCI-H226 lung; over 100 µM in the assay on OVCAR-5 ovarian; over 100 µM with OVCAR-8 ovarian. The total growth inhibition concentration (TGI) in the assay with SF-268 CNS is over 100 µM; with U251 CNS, 84.6 µM.
